pEC50: −log10 of the molar value.
Key:
[1] = test system: Myotonic Dystrophy 1 affected patient fibroblasts (Coriel GM04602; 1600 CTG repeats); test: DM1 foci reduction assay (EC50 assay; CAG10-Cy3 FISH, foci per nucleus); format: cell-based; conditions: Homo sapiens, Fibroblast; DM1 patient fibroblasts, 48 h treatment, foci per nucleus; read-out: DM1 EC50, 48 h
Summary of the method: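 Foci per nucleus counted by 20× imaging of 4 areas per well, after overnight FISH with 5 nM CAG10-Cy3 and DAPI staining of fixed, permeabilized cells. DM1 fibroblasts (GM04602, 1600 CTG) were dosed 48 h at 37 °C, 8 points, 3-fold dilutions, 3 μM top concentration.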

F35T cells = test: Foci reduction in FECD (CAG10-Cy3 FISH, foci per nucleus); format: cell-based; conditions: F35T cells, 48 h treatment, foci per nucleus; read-out: FECD EC50, 48 h
Summary of the method: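 Foci per nucleus were counted by imaging after overnight CAG10-Cy3 FISH at 37 °C (30% formamide, 2×SSC) with DAPI counterstain, on PFA-fixed, ethanol-permeabilized F35T cells. The cells, seeded at 5000 per well in supplemented Opti-MEM, had received 8-point compound dilutions for 48 h at 37 °C.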

SMILES | pEC50 [1] | pEC50 (F35T cells)
CCN(CC)CCCC[C@H](NC(=O)c1cccnc1)C(=O)NCCOCCOCCOCCOCCOCCNC(=O)CCNC(=O)c1nc(NC(=O)c2cc(NC(=O)CCNC(=O)c3nc(NC(=O)CCCNC(=O)c4cc(NC(=O)c5nc(NC(=O)CCNC(=O)c6cc(NC(=O)c7nccn7C)cn6C)cn5C)cn4C)cn3C)cn2C)cn1C [Compound B-94] | 6.00 to 6.30 | 6.30 to 7.00
CCN(CC)CCCC[C@H](NC(=O)C1CCNCC1)C(=O)NCCOCCOCCOCCOCCOCCNC(=O)CCNC(=O)c1nc(NC(=O)c2cc(NC(=O)CCNC(=O)c3nc(NC(=O)CCCNC(=O)c4cc(NC(=O)c5nc(NC(=O)CCNC(=O)c6cc(NC(=O)c7nccn7C)cn6C)cn5C)cn4C)cn3C)cn2C)cn1C [Compound B-95] | 6.00 to 6.30 | < 6.00
Cn1cc(NC(=O)c2nc(NC(=O)CCNC(=O)c3cc(NC(=O)c4nccn4C)cn3C)cn2C)cc1C(=O)NCCCC(=O)Nc1cn(C)c(C(=O)NCCC(=O)Nc2cc(C(=O)Nc3cn(C)c(C(=O)NCCCO)n3)n(C)c2)n1 [Compound B-105] | 6.30 to 7.00 | 6.30 to 7.00
Cn1cc(NC(=O)c2nc(NC(=O)CCNC(=O)c3cc(NC(=O)c4nccn4C)cn3C)cn2C)cc1C(=O)NCCCC(=O)Nc1cn(C)c(C(=O)NCCC(=O)Nc2cc(C(=O)Nc3cn(C)c(C(=O)NCCOCCOCCOCCN4CCC(C#CC#CC5CCNCC5)CC4)n3)n(C)c2)n1 [Compound B-107] | 6.30 to 7.00 | 6.30 to 7.00
CN(C)CCCNC(=O)c1nc(NC(=O)c2cc(NC(=O)CCNC(=O)c3nc(NC(=O)CCCNC(=O)c4cc(NC(=O)c5nc(NC(=O)CCNC(=O)c6cc(NC(=O)c7nccn7C)cn6C)cn5C)cn4C)cn3C)cn2C)cn1C [Compound B-108] | 6.30 to 7.00 | 6.30 to 7.00
CN(CCCNC(=O)c1cccc(C(=O)O)c1)CCCNC(=O)c1nc(NC(=O)c2cc(NC(=O)CCNC(=O)c3nc(NC(=O)CCCNC(=O)c4cc(NC(=O)c5nc(NC(=O)CCNC(=O)c6cc(NC(=O)c7nccn7C)cn6C)cn5C)cn4C)cn3C)cn2C)cn1C [Compound B-109] | 6.30 to 7.00 | 6.30 to 7.00
CC(Nc1cc(C(=O)NCCC(=O)Nc2cn(C)c(C(=O)Nc3cc(C(=O)NCCCC(=O)Nc4cn(C)c(C(=O)Nc5cc(C(=O)NCCC(=O)Nc6cn(C)c(C(=O)NCCC(=O)NCCOCCOCCOCCOCCOCCNC(=O)[C@H](CO)NC(=O)OC(C)(C)C)n6)n(C)c5)n4)n(C)c3)n2)n(C)c1)c1nccn1C (stereo partly shown) [Compound B-110] | 6.00 to 6.30 | 6.30 to 7.00
CC(Nc1cc(C(=O)NCCC(=O)Nc2cn(C)c(C(=O)Nc3cc(C(=O)NCCCC(=O)Nc4cn(C)c(C(=O)Nc5cc(C(=O)NCCC(=O)Nc6cn(C)c(C(=O)NCCC(=O)NCCOCCOCCOCCOCCOCCNC(=O)[C@@H](N)CO)n6)n(C)c5)n4)n(C)c3)n2)n(C)c1)c1nccn1C (stereo partly shown) [Compound B-111] | 6.00 to 6.30 | < 6.00
Cn1cc(NC(=O)c2nc(NC(=O)CCNC(=O)c3cc(NC(=O)c4nccn4C)cn3C)cn2C)cc1C(=O)NCCCC(=O)Nc1cn(C)c(C(=O)NCCC(=O)Nc2cc(C(=O)Nc3cn(C)c(C(=O)NCCC(=O)NCCCCC#N)n3)n(C)c2)n1 [Compound B-113] | > 7.00 | > 7.00
CC(=O)N1CCC(CN2CCN(C(=O)CCNC(=O)c3nc(NC(=O)c4cc(NC(=O)CCNC(=O)c5nc(NC(=O)CCCNC(=O)c6cc(NC(=O)c7nc(NC(=O)CCNC(=O)c8cc(NC(=O)c9nccn9C)cn8C)cn7C)cn6C)cn5C)cn4C)cn3C)CC2)CC1 [Compound B-115] | 6.30 to 7.00 | 6.00 to 6.30
Cn1cc(NC(=O)c2nc(NC(=O)CCNC(=O)c3cc(NC(=O)c4nccn4C)cn3C)cn2C)cc1C(=O)NCCCC(=O)Nc1cn(C)c(C(=O)NCCC(=O)Nc2cc(C(=O)Nc3cn(C)c(C(=O)NCCC(=O)N4CCN(C5CCNCC5)CC4)n3)n(C)c2)n1 [Compound B-117] | 6.30 to 7.00 | 6.00 to 6.30
CC(=O)N1CCC(N2CCN(C(=O)CCNC(=O)c3nc(NC(=O)c4cc(NC(=O)CCNC(=O)c5nc(NC(=O)CCCNC(=O)c6cc(NC(=O)c7nc(NC(=O)CCNC(=O)c8cc(NC(=O)c9nccn9C)cn8C)cn7C)cn6C)cn5C)cn4C)cn3C)CC2)CC1 [Compound B-119] | 6.30 to 7.00 | 6.00 to 6.30
CN1CCC(N2CCN(C(=O)CCNC(=O)c3nc(NC(=O)c4cc(NC(=O)CCNC(=O)c5nc(NC(=O)CCCNC(=O)c6cc(NC(=O)c7nc(NC(=O)CCNC(=O)c8cc(NC(=O)c9nccn9C)cn8C)cn7C)cn6C)cn5C)cn4C)cn3C)CC2)CC1 [Compound B-120] | 6.00 to 6.30 | < 6.00
CC(=O)N1CCC(C#CC#CC2CCN(CCOCCOCCOCCNC(=O)CCNC(=O)c3nc(NC(=O)c4cc(NC(=O)CCNC(=O)c5nc(NC(=O)CCCNC(=O)c6cc(NC(=O)c7nc(NC(=O)CCNC(=O)c8cc(NC(=O)c9nccn9C)cn8C)cn7C)cn6C)cn5C)cn4C)cn3C)CC2)CC1 [Compound B-121] | 6.30 to 7.00 | 6.30 to 7.00
CC(C)C(=O)N1CCC(C#CC#CC2CCN(CCOCCOCCOCCNC(=O)CCNC(=O)c3nc(NC(=O)c4cc(NC(=O)CCNC(=O)c5nc(NC(=O)CCCNC(=O)c6cc(NC(=O)c7nc(NC(=O)CCNC(=O)c8cc(NC(=O)c9nccn9C)cn8C)cn7C)cn6C)cn5C)cn4C)cn3C)CC2)CC1 [Compound B-122] | 6.30 to 7.00 | 6.30 to 7.00
Cn1cc(NC(=O)c2nc(NC(=O)CCNC(=O)c3cc(NC(=O)c4nccn4C)cn3C)cn2C)cc1C(=O)NCCCC(=O)Nc1cn(C)c(C(=O)NCCC(=O)Nc2cc(C(=O)Nc3cn(C)c(C(=O)NCCC(=O)NCCOCCOCCOCCN4CCC(C#CC#CC5CCN(C(=O)C(C)(C)C)CC5)CC4)n3)n(C)c2)n1 [Compound B-123] | > 7.00 | 6.30 to 7.00
CC(C)N1CCC(C#CC#CC2CCN(CCOCCOCCOCCNC(=O)CCNC(=O)c3nc(NC(=O)c4cc(NC(=O)CCNC(=O)c5nc(NC(=O)CCCNC(=O)c6cc(NC(=O)c7nc(NC(=O)CCNC(=O)c8cc(NC(=O)c9nccn9C)cn8C)cn7C)cn6C)cn5C)cn4C)cn3C)CC2)CC1 [Compound B-124] | 6.30 to 7.00 | 6.00 to 6.30
CN1CCC(C#CC#CC2CCN(CCOCCOCCOCCNC(=O)CCNC(=O)c3nc(NC(=O)c4cc(NC(=O)CCNC(=O)c5nc(NC(=O)CCCNC(=O)c6cc(NC(=O)c7nc(NC(=O)CCNC(=O)c8cc(NC(=O)c9nccn9C)cn8C)cn7C)cn6C)cn5C)cn4C)cn3C)CC2)CC1 [Compound B-125] | 6.30 to 7.00 | 6.30 to 7.00
Cn1cc(NC(=O)c2nc(NC(=O)CCNC(=O)c3cc(NC(=O)c4nccn4C)cn3C)cn2C)cc1C(=O)NCCCC(=O)Nc1cn(C)c(C(=O)NCCC(=O)Nc2cc(C(=O)Nc3cn(C)c(C(=O)NCCC(=O)N4CCC(C#CC#CC5CCNCC5)CC4)n3)n(C)c2)n1 [Compound B-126, 1-Methyl-4-(3-{[1-methyl-4-(1-methylimidazole-2-amido)pyrrol-2-yl]formamido}propanamido)-N-(1-methyl-5-{[3-({1-methyl-2-[(2-{[1-methyl-5-({1-methyl-2-[(3-oxo-3-{4-[4-(piperidin-4-yl)buta-1,3-diyn-1-yl]piperidin-1-yl}propyl)carbamoyl]imidazol-4-yl}carbamoyl)pyrrol-3-yl]carbamoyl}ethyl)carbamoyl]imidazol-4-yl}carbamoyl)propyl]carbamoyl}pyrrol-3-yl)imidazole-2-carboxamide] | > 7.00 | > 7.00
Cn1cc(NC(=O)c2nc(NC(=O)CCNC(=O)c3cc(NC(=O)c4nccn4C)cn3C)cn2C)cc1C(=O)NCCCC(=O)Nc1cn(C)c(C(=O)NCCC(=O)Nc2cc(C(=O)Nc3cn(C)c(C(=O)NCCC(=O)N4CCC(CN5CCNCC5)CC4)n3)n(C)c2)n1 [Compound B-127] | 6.30 to 7.00 | 6.30 to 7.00

From patent US20250368628A1, “METHODS AND COMPOUNDS FOR MODULATING INHERITED GENETIC DISEASES” (Design Therapeutics, Inc., priority 2022, published 2025)
